Assays:
[1] = test system: Karpas422 cells; assay: Tumor cell growth inhibition assay; type: cell-based; conditions: Homo sapiens, KARPAS-422, 144 h, read-out: Tumor Growth Inhibition in Karpas-422 (IC50, uM), Karpas422 cells, six days, ATPlite
Method in brief: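 Karpas422 cells (2,000/well) in Alpha-MEM with 10% FBS dosed across 10 concentrations (top 5 uM) and grown six days at 37° C., 5% CO2. Viability read as ATPlite luminescence.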

[2] = target: BCL6 BTB domain (Homo sapiens (Human), UniProt P41182); assay: Surface plasmon resonance (SPR) assay; type: binding; conditions: BCL6 BTB domain captured on SA chip, single cycle kinetics
[3] = test system: BCL6 reporter construct (3xBCL6-TK-Luc) in SuDHL4 cells; assay: Cell-based luciferase assay; conditions: Homo sapiens, SU-DHL-4, 48 h, read-out: Luciferase-Assay EC50, uM), SuDHL4-3xBCL6-TK-Luc cells, two days, high dose 10 uM
Method in brief: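 SuDHL4 cells stably carrying a 3×BCL6-site TK-promoter firefly luciferase reporter, seeded at 15,000 cells/well, were dosed over a 10-point range (top 10 uM) and grown two days at 37 °C, 5% CO2. Luminescence then read after adding neolite reagent at room temperature.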

In the case of Cn1cnc2c(c(-c3cc(C(N)=O)c(O)c(F)c3F)cn2CC(=O)Nc2cc(N3CCC3)nc(F)c2Cl)c1=O [Compound I-488], the IC50 [1] is reported as 0.417 µM, the Kd [2] is reported as 71.6 nM and the EC50 [3] is reported as 1.28 µM.

Source: patent US11518764B2, “Substituted heteroaryls as inhibitors of the BCL6 BTB domain protein-protein interaction” (Ontario Institute for Cancer Research (OICR), priority 2018, dated 2022)
